# Values of other authors in patent US8128958B2, “Sustained release pharmaceutical composition” (Astellas Pharma Inc., priority 2003, dated 2012).
# Where a name gives a salt, the structure may show the parent alone.
# Assays:
# [1] = not given; remark: listed apart in the source
smiles,measurement,setting,value
"CCOc1ccccc1OCCN[C@H](C)Cc1ccc(OC)c(S(N)(=O)=O)c1 [tamsulosin hydrochloride, (R)(−)-5-[2-[[2-(o-ethoxyphenoxy)ethyl]-amino]propyl]-2-methoxybenzenesulfonamide]",adverse reactions (including abnormal clinical data) presumably related to the agent,"104 cases among 4724 cases, research in use upon approval and post marketing surveillance in Japan",2.2%
same,"frequency of hypotension, postural hypotension, blood pressure, tachycardia and palpitation","package insert, circulatory area",less than 0.1%
same,"frequency of orthostatic syncope, headache and sleepiness","package insert, psychoneural area",less than 0.1%
same,Cmax and AUC versus dose,"[1]; 0.1 to 0.6 mg orally, healthy adult volunteers",increased almost in proportion to the dose administered
same,day on which plasma concentration profiles reached the steady state,[1]; repeatedly administered per os for seven days,4 days
